Values quoted from earlier work as cited in patent US20210145763A1, “LOW THC HEMP EXTRACT AND METHOD OF TREATMENT OR PREVENTION OF AN EYE DISEASE” (EYE CO PTY LTD, priority 2018, published 2021).

Legend:
[1] = biological target: T1, mineralocorticoid receptor (Homo sapiens, UniProt P08235); conditions: relative potency, hydrocortisone = 1
T1 sequence (P08235 1-984): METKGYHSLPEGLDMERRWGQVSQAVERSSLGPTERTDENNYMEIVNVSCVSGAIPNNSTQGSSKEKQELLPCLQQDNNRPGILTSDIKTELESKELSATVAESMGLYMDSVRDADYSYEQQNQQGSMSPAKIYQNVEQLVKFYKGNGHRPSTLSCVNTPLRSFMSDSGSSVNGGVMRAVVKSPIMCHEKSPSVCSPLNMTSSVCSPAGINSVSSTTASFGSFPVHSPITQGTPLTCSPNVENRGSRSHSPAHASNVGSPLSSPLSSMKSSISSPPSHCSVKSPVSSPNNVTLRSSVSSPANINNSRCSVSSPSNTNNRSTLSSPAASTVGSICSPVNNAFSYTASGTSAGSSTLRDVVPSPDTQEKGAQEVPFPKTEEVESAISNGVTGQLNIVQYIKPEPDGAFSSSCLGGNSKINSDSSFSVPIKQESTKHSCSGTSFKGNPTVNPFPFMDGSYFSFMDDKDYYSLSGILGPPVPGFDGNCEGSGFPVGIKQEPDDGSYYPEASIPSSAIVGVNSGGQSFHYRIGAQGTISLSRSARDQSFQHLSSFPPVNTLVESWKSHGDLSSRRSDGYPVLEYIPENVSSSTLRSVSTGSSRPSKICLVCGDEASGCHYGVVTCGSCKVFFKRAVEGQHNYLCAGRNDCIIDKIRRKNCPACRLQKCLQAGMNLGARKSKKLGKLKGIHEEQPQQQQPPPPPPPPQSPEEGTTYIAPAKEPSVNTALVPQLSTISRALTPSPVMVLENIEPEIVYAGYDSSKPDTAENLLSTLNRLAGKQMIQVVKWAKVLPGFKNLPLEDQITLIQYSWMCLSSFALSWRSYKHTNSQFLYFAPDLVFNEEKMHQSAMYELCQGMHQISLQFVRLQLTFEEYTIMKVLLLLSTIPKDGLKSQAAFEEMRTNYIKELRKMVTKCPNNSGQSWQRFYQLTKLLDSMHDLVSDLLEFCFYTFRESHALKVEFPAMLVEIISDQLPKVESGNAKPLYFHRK

glucocorticoid receptor = biological target: T2, glucocorticoid receptor (Homo sapiens, UniProt P04150); conditions: relative potency, hydrocortisone = 1
T2 sequence (P04150 1-777): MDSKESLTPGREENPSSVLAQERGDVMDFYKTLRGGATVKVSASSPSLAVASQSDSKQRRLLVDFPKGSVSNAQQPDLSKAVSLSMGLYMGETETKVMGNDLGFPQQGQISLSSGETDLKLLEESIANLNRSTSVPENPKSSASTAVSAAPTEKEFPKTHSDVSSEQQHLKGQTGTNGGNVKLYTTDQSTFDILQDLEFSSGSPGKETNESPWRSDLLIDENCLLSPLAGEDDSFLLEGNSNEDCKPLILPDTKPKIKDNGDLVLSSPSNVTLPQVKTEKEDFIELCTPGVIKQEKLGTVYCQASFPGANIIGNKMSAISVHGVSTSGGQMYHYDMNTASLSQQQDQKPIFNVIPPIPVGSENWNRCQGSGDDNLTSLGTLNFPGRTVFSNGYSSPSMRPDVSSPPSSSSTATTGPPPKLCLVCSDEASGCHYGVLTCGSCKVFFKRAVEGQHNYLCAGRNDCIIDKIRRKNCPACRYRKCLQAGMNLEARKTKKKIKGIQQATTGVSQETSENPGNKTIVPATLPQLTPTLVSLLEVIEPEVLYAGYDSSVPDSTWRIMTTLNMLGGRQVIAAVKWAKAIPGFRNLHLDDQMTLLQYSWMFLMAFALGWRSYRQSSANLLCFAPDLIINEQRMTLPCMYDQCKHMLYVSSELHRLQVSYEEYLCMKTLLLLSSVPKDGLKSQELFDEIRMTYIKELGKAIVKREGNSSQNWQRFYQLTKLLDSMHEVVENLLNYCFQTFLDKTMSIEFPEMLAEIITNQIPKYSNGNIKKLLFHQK

[2] = in vivo

Row | SMILES | MR potency [1] | GR potency (glucocorticoid receptor) | Duration of action (t1/2 in hours) [2] [h]
1 | CC(=O)OCC(=O)[C@@]1(O)CC[C@H]2[C@@H]3CCC4=CC(=O)CC[C@]4(C)[C@@]3(F)[C@@H](O)C[C@@]21C [Fludrocortisone acetate] | 200 | – | –
2 | C[C@]12CCC(=O)C=C1CC[C@@H]1[C@@H]2[C@@H](O)C[C@@]2(C)[C@H]1CC[C@]2(O)C(=O)CO [Hydrocortisone (cortisol), Hydrocortisone] | 1 | 1 | –
3 | C[C@H]1C[C@@H]2[C@H]([C@@H](O)C[C@@]3(C)[C@H]2CC[C@]3(O)C(=O)CO)[C@@]2(C)C=CC(=O)C=C12 [Methylprednisolone] | – | – | 18 to 40
4 | CC(=O)OCC(=O)[C@H]1CC[C@H]2[C@@H]3CCC4=CC(=O)CC[C@]4(C)[C@H]3CC[C@]12C [Deoxycorticosterone acetate (DOCA), Deoxycorticosterone acetate] | 20 | 0 | –
5 | C[C@]12CCC(=O)C=C1CC[C@@H]1[C@@H]2C(=O)C[C@@]2(C)[C@H]1CC[C@]2(O)C(=O)CO [Cortisone] | 0.8 | 0.8 | –

More lines, now with the values ahead:

Row | MR potency [1] | GR potency (glucocorticoid receptor) | Duration of action (t1/2 in hours) [2] [h] | SMILES
6 | 0.8 | 4 | 16 to 36 | C[C@]12C=CC(=O)C=C1CC[C@@H]1[C@@H]2[C@@H](O)C[C@@]2(C)[C@H]1CC[C@]2(O)C(=O)CO [Prednisolone]
7 | 200-1000 | 0.3 | – | C[C@]12CCC(=O)C=C1CC[C@@H]1[C@@H]2[C@@H](O)C[C@]2(C=O)[C@@H](C(=O)CO)CC[C@@H]12 [Aldosterone]
8 | 0 | 5 | 12 to 36 | C[C@]12C=CC(=O)C=C1CC[C@H]1[C@@H]3C[C@@H](O)[C@](O)(C(=O)CO)[C@@]3(C)C[C@H](O)[C@@]12F [Triamcinolone]
9 | 0.8 | – | 16 to 36 | C[C@]12C=CC(=O)C=C1CC[C@@H]1[C@@H]2C(=O)C[C@@]2(C)[C@H]1CC[C@]2(O)C(=O)CO [Prednisone]
